22 compounds from ChEMBL document CHEMBL3853318, “Structure-Based Optimization of Potent, Selective, and Orally Bioavailable CDK8 Inhibitors Discovered by High-Throughput Screening” (J Med Chem, 2016) can be followed below.

The structures appear in SMILES notation.

In data set [1] the test system is 7dF3. Description: Ratio of IC50 for CDK8 in human 7dF3 cells to IC50 for Alexa647 tracer binding to full length recombinant human His-tagged CDK8/cyclin C. The class given is cell-based.
Data set [2] addresses CDK8/Cyclin C (Homo sapiens, UniProt P49336). Description: Inhibition of Alexa647 tracer binding to full length recombinant human His-tagged CDK8/cyclin C expressed in Baculovirus expression system preincubated for 20 mins followed by tracer addition and incubated in dark for 60 mins by FRET-based Lanthascreen assay. Background: TR-FRET usually uses a lanthanide donor and a delayed reading to cut background.

Data set [3] in a line: Intrinsic clearance in human liver microsomes at 1 uM preincubated for 5 mins followed by NADPH addition measured after 5 to 30 mins by LC-MS/MS analysis. The class given is ADME. The following applies: read-out: CLH. (Microsomes from liver hold many membrane-bound enzymes, among them those of drug oxidation.)
The target in data set [4] is Cyclin-dependent kinase 8 (Homo sapiens, UniProt P49336). Description: Inhibition of CDK8 in human 7dF3 cells preincubated for 2 hrs followed by beta-oestradiol addition measured after 24 hrs by luciferase reporter gene assay. The format is cell-based. (In general: A reporter such as luciferase makes a cellular process visible.)
Data set [5] can be described thus: Intrinsic clearance in mouse liver microsomes at 1 uM preincubated for 5 mins followed by NADPH addition measured after 5 to 30 mins by LC-MS/MS analysis. The class given is ADME. The settings on record: read-out: CLH.
Data set [6] in a line: Intrinsic clearance in rat liver microsomes at 1 uM preincubated for 5 mins followed by NADPH addition measured after 5 to 30 mins by LC-MS/MS analysis. The format is ADME. The settings on record: read-out: CLH.
Data set [7] deals with Rho-associated protein kinase 2 (Homo sapiens, UniProt O75116). The data set can be described thus: Inhibition of ROCK-2 (unknown origin) at 1 uM relative to control.
In data set [8] the target is Tyrosine-protein kinase JAK1 (Homo sapiens, UniProt P23458). Description: Inhibition of JAK1 (unknown origin) at 1 uM relative to control.
Data set [9] addresses Tyrosine-protein kinase JAK2 (Homo sapiens, UniProt O60674). Description: Inhibition of JAK2 (unknown origin) at 1 uM relative to control.
The target in data set [10] is T1, Tyrosine-protein kinase JAK3 (Homo sapiens) (UniProt P52333).
T1 sequence (whole entry): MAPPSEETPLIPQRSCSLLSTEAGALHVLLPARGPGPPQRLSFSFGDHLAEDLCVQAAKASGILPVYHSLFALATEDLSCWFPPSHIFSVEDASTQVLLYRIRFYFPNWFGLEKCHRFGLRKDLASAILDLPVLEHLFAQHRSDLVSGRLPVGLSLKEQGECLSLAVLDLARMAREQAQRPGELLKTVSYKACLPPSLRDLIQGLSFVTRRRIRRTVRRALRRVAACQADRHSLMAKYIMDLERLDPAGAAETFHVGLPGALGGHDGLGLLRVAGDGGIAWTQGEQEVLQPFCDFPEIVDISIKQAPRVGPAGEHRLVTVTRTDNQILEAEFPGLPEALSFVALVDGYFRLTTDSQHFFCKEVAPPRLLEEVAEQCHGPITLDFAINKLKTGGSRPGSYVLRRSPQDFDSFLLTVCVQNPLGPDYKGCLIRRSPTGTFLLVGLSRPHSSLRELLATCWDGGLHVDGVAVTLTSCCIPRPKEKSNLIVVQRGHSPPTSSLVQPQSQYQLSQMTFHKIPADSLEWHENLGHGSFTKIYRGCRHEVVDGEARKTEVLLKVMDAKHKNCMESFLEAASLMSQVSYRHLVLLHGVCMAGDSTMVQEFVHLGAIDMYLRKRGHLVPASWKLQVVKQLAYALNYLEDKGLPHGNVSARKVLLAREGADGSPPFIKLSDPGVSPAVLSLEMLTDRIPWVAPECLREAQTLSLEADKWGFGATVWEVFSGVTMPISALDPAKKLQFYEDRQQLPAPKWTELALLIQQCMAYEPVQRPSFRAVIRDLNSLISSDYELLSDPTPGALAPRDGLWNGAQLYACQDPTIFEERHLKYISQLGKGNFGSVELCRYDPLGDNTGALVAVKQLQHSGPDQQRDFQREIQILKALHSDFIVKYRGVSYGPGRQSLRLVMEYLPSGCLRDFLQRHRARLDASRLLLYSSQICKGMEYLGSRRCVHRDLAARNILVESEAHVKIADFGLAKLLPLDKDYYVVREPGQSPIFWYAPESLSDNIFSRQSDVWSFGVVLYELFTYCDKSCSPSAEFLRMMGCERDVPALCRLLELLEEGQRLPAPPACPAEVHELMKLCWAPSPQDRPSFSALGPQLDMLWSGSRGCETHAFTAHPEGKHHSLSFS
The data set can be described thus: Inhibition of JAK3 (unknown origin) at 1 uM relative to control.

Data set [11] addresses Non-receptor tyrosine-protein kinase TYK2 (Homo sapiens, UniProt P29597). Description: Inhibition of TYK2 (unknown origin) at 1 uM relative to control.

Sequence of Tyrosine-protein kinase JAK2 (O60674 whole entry): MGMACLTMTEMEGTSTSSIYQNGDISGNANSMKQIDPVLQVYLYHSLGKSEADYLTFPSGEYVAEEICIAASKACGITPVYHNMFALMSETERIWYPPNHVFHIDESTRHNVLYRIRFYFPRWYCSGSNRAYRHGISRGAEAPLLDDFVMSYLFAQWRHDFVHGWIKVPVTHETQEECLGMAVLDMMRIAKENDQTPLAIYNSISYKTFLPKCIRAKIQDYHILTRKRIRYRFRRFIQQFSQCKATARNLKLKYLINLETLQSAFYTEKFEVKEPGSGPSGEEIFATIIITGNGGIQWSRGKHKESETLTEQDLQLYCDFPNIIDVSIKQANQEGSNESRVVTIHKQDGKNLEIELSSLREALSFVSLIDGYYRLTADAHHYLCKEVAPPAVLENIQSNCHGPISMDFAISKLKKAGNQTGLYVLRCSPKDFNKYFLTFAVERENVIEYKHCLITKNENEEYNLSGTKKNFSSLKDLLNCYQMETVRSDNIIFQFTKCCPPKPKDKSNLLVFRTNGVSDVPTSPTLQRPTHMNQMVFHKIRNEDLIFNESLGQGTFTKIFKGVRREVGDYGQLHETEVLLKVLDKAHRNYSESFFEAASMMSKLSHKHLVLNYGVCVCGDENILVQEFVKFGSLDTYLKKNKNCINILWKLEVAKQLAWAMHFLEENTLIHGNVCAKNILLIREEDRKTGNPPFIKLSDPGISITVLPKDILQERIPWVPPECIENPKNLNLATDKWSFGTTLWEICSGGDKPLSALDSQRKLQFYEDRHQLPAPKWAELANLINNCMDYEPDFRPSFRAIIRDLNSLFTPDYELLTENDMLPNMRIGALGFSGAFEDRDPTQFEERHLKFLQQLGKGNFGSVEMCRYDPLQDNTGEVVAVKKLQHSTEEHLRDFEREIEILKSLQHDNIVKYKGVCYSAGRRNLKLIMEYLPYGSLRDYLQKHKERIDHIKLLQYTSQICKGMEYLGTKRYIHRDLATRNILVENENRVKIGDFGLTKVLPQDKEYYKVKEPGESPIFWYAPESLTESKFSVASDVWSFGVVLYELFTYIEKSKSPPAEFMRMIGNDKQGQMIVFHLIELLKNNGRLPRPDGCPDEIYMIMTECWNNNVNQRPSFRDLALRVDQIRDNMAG
Sequence of Non-receptor tyrosine-protein kinase TYK2 (P29597 whole entry): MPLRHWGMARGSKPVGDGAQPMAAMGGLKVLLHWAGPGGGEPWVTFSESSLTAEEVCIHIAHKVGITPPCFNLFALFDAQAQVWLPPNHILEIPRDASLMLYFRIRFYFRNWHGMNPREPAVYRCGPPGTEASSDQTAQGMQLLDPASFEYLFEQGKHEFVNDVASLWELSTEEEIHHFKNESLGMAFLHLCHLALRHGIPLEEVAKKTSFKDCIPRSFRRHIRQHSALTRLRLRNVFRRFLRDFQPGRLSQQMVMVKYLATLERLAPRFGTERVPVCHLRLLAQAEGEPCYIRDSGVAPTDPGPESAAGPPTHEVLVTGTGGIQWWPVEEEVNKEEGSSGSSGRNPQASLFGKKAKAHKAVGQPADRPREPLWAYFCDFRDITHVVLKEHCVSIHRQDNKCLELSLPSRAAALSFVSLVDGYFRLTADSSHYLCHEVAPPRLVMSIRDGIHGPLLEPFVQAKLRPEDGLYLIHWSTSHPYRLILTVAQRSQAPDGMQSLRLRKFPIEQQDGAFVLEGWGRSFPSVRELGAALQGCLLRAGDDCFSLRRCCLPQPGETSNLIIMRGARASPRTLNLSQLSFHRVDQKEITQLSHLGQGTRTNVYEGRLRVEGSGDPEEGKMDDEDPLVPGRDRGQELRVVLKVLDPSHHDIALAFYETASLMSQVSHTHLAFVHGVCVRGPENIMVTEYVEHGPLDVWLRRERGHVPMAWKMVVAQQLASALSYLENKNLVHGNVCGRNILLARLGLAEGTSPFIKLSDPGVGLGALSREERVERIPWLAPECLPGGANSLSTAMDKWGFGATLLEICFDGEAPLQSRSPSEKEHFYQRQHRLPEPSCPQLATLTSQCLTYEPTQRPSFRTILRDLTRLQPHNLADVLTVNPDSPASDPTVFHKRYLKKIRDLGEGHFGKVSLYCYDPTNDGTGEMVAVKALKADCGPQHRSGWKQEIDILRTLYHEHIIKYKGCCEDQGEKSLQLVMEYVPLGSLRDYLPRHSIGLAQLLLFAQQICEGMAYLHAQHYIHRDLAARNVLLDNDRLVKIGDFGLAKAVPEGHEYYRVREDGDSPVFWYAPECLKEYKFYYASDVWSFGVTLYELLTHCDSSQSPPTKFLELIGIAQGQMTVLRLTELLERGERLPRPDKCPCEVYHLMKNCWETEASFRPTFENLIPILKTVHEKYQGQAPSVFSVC
Sequence of Rho-associated protein kinase 2 (O75116 whole entry, looked up): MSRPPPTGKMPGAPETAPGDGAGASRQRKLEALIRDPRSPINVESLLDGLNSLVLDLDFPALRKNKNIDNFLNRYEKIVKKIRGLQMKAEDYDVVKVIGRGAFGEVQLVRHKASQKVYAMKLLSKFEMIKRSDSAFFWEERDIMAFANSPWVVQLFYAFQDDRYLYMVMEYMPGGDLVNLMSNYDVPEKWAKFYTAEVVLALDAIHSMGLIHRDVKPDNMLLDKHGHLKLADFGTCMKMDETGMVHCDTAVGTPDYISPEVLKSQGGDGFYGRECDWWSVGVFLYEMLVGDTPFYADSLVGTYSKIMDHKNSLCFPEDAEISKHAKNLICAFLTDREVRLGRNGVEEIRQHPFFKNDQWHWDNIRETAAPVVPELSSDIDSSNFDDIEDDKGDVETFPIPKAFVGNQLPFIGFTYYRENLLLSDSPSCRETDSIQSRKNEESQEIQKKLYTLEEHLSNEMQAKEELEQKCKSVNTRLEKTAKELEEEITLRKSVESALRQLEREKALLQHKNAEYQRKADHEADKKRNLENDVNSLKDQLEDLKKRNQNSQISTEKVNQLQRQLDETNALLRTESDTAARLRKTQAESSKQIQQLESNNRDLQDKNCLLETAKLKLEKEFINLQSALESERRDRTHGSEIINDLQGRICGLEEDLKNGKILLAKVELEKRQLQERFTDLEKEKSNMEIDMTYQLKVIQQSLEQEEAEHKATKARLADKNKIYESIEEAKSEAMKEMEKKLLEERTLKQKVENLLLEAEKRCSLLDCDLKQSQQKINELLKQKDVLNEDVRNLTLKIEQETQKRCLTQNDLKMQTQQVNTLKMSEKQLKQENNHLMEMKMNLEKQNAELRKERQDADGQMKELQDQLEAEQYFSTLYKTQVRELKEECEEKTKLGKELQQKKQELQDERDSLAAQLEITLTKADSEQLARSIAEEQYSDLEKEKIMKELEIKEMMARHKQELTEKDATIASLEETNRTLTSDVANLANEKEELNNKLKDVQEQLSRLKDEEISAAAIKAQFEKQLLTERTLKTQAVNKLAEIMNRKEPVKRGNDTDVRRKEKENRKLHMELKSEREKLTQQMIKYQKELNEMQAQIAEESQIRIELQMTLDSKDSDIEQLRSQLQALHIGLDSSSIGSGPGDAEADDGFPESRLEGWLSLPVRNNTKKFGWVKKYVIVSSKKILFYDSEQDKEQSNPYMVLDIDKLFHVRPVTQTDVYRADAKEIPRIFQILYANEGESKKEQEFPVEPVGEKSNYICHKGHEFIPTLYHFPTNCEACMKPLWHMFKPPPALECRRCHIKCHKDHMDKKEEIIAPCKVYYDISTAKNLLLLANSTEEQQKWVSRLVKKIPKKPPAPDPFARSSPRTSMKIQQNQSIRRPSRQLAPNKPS
Sequence of Tyrosine-protein kinase JAK1 (P23458 whole entry): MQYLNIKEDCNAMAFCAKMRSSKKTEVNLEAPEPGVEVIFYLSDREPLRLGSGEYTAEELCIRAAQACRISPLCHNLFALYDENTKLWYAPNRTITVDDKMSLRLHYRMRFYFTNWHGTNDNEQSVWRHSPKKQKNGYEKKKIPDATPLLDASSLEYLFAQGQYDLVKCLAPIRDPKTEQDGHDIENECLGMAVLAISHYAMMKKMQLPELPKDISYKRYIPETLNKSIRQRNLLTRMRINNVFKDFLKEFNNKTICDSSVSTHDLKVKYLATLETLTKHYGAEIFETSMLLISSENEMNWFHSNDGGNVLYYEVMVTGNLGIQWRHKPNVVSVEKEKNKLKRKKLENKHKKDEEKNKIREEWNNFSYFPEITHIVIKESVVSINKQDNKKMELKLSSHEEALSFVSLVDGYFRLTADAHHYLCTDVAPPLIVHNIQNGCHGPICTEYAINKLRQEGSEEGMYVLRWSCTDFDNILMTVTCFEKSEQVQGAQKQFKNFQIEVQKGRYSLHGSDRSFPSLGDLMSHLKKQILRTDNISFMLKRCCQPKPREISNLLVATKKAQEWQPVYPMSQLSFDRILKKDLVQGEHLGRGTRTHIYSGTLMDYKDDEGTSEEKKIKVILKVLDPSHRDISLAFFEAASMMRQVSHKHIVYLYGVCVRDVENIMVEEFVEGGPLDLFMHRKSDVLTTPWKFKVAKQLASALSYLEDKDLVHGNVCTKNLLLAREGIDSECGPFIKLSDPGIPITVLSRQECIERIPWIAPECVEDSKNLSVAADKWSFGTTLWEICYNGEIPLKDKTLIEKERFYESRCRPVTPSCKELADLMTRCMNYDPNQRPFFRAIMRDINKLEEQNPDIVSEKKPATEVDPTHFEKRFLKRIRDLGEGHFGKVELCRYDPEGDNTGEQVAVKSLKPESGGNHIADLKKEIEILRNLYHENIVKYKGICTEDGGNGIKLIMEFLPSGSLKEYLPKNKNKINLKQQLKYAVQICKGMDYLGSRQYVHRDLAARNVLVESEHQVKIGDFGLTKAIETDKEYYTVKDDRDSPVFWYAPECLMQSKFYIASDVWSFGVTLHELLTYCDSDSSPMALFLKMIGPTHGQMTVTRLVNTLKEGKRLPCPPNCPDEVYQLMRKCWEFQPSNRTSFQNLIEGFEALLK

On to `Cc1ncc2sc(C(=O)N3CCCC3c3ccccc3)nn12` (configuration not stated), for which, in [1], the Ratio IC50 was 3. Besides, the results for the IC50 in [2] and in [4] were 77 nM and 415 nM, respectively. The microsomal CLint at 1 µM came to 56 µL/min/mg in [3], 145 µL/min/mg in data set [5] and 446 µL/min/mg in [6].
With `Cc1n[nH]c2ccc(C(=O)N3CCOCC3c3ccc(Cl)cc3)cc12` (configuration not stated), the IC50 (in general, the concentration needed to halve the response being measured) in data set [2] stood at 8.5 nM; in data set [4] it was 115 nM. Also, the values for the microsomal CLint at 1 µM in data set [3], in [5] and in data set [6] were 135 µL/min/mg, 29 µL/min/mg and 44 µL/min/mg, respectively.
For the compound `Nc1n[nH]c2ccc(C(=O)N3CCC[C@H]3c3ccc(Br)cc3)cc12`, the figures for the IC50 in data set [2] and in data set [4] were 3.1 nM and 19 nM, respectively. In addition, the inhibition (commonly the change of the read-out against control, counted positive when it falls) in data set [7] stood at 65%; in data set [8], 88%; in data set [9], 88%; in data set [10], 76%; in data set [11], 76%. Also, the microsomal CLint at 1 µM in data set [3] is less than 10 µL/min/mg; in [5], 14 µL/min/mg; in [6], less than 10 µL/min/mg.
Consider `CCOc1ccccc1C(C)NC(=O)c1nn2c(C)ncc2s1` (configuration not stated), for which the Ratio IC50 in data set [1] is 3. In addition, the results for the IC50 in data set [2] and in data set [4] were 781 nM and 2450 nM, respectively. Further, the microsomal CLint at 1 µM is 61 µL/min/mg in data set [3], greater than 1000 µL/min/mg in [5] and 38 µL/min/mg in data set [6].
Regarding `Nc1n[nH]c2ccc(C(=O)N3CCCC[C@H]3c3ccc(F)cc3)cc12`, the IC50 in [2] was 45 nM; in [4], 800 nM. The inhibition in data set [7] was 22%; in data set [8] it was 21%; in data set [9], -2%; in data set [11], 17%. In addition, the microsomal CLint at 1 µM in data set [3] is less than 10 µL/min/mg; in data set [5], 28 µL/min/mg; in data set [6], 15 µL/min/mg.
For the compound `CNc1n[nH]c2ccc(C(=O)N3CCC[C@H]3c3ccc(Cl)cc3)cc12`, the IC50 in data set [2] turned out to be 5.4 nM; in data set [4], 12 nM. Also, the inhibition in data set [7] worked out at 17%; in data set [8], 34%; in data set [9], 34%; in data set [10] it was 37%; in [11] it was 32%. Also, the figures for the microsomal CLint at 1 µM in data set [3], in [5] and in data set [6] were 18 µL/min/mg, 31 µL/min/mg and 28 µL/min/mg, respectively.
Regarding `Cc1ncc2sc(C(=O)N3CCCC3c3ccc(F)cc3)nn12` (configuration not stated), in [1], the Ratio IC50 amounted to 3. The IC50 in [2] is 60 nM; in data set [4] it was 290 nM. The microsomal CLint at 1 µM in data set [3] worked out at 38 µL/min/mg; in data set [5] it was 129 µL/min/mg; in [6] it was 280 µL/min/mg.
In the case of `CCOc1ccccc1CNC(=O)c1nn2c(C)ncc2s1`, the Ratio IC50 in data set [1] was found to be 3. In addition, the figures for the IC50 in data set [2] and in data set [4] were 129 nM and 1650 nM, respectively. The microsomal CLint at 1 µM is greater than 1000 µL/min/mg in [3], 119 µL/min/mg in data set [5] and 435 µL/min/mg in data set [6].
In the case of `O=C(c1ccc2[nH]ncc2c1)N1CCC[C@H]1c1ccc(Cl)cc1`, the 50% inhibitory concentration (IC50) came to 32 nM in data set [2] and 100 nM in data set [4]. Besides, the microsomal CLint at 1 µM in data set [3] amounted to 354 µL/min/mg; in [5], 86 µL/min/mg; in data set [6], 94 µL/min/mg.
`Cc1n[nH]c2ccc(C(=O)N3CCN(C)CC3c3ccc(Cl)cc3)cc12` (configuration not stated): the results for the IC50 in [2] and in data set [4] were 15 nM and 230 nM, respectively. The values for the microsomal CLint at 1 µM in data set [3], in [5] and in [6] were 135 µL/min/mg, 63 µL/min/mg and 40 µL/min/mg, respectively.
In the same order, the values of `Cc1n[nH]c2ccc(C(=O)N3CCC[C@H]3c3ccc(Cl)cc3)nc12` are 1.3 nM, 2.8 nM, 100 µL/min/mg, 29 µL/min/mg and 69 µL/min/mg.
For `Cc1n[nH]c2ccc(C(=O)N3CC[C@H]3c3ccc(Cl)cc3)cc12`, the IC50 was 1.7 nM in data set [2] and 2 nM in data set [4]. Moreover, the results for the microsomal CLint at 1 µM in data set [3], in [5] and in data set [6] were 908 µL/min/mg, 113 µL/min/mg and 62 µL/min/mg, respectively.
In the same order, the values of `Cc1n[nH]c2cnc(C(=O)N3CCC[C@H]3c3ccc(Cl)cc3)cc12` are 11 nM, 125 nM, 206 µL/min/mg, 61 µL/min/mg and 70 µL/min/mg.
Regarding `Cc1nnc2ccc(C(=O)N3CCC[C@H]3c3ccc(Cl)cc3)cn12`, the IC50 in [2] is 3990 nM; in data set [4] it was greater than 10000 nM. In addition, the microsomal CLint at 1 µM is less than 10 µL/min/mg in data set [3], 18 µL/min/mg in data set [5] and 19 µL/min/mg in data set [6].
Turning to `Cc1ncc2sc(C(=O)N3CCC[C@H]3c3ccc(Cl)cc3)nn12`, the results for the IC50 in [2] and in data set [4] were 3.8 nM and 70 nM, respectively. For the same compound, the results for the microsomal CLint at 1 µM in data set [3], in data set [5] and in data set [6] were 49 µL/min/mg, 447 µL/min/mg and 655 µL/min/mg, respectively.
Take `Cc1ncc2ccc(C(=O)N3CCC[C@H]3c3ccc(Cl)cc3)cn12`: the IC50 in data set [2] came out at 9 nM; in [4], 90 nM. Besides, the microsomal CLint at 1 µM in data set [3] was determined as 390 µL/min/mg; in [5], 63 µL/min/mg; in data set [6] it was 108 µL/min/mg.
In the case of `Nc1n[nH]c2ccc(C(=O)N3CC[C@H]3c3ccc(F)cc3)cc12`, the figures for the IC50 in data set [2] and in data set [4] were 49 nM and 435 nM, respectively. Moreover, the inhibition in data set [7] amounted to 12%; in data set [8] it was 63%; in [9] it was 24%; in data set [10], 21%; in data set [11], 45%. Besides, the microsomal CLint at 1 µM in data set [3] is 10 µL/min/mg; in [5], 10 µL/min/mg; in [6], less than 10 µL/min/mg.
With `Cc1n[nH]c2ccc(C(=O)N3CCC[C@H]3c3ccc(Cl)cc3)cc12`, the IC50 is 1.4 nM in [2] and 0.6 nM in data set [4]. The microsomal CLint at 1 µM in [3] was determined as 525 µL/min/mg; in data set [5], 244 µL/min/mg; in data set [6], 79 µL/min/mg.
`Cc1ncc2sc(C(=O)N3CCCC3c3ccc(Cl)cc3)nn12` (configuration not stated): the concentration for half-maximal inhibition (IC50) in data set [2] was 17 nM; in data set [4], 100 nM. For the same compound, the microsomal CLint at 1 µM in data set [3] came out at 52 µL/min/mg; in data set [5], 388 µL/min/mg; in data set [6], 719 µL/min/mg.
As to `Nc1n[nH]c2ccc(C(=O)N3CCC[C@H]3c3ccc(F)cc3)cc12`, the IC50 was determined as 32 nM in data set [2] and 120 nM in data set [4]. Also, the inhibition in data set [7] is 27%; in data set [8], 72%; in data set [9], 59%; in data set [10], 58%; in data set [11], 62%. The microsomal CLint at 1 µM in data set [3], in [5] and in [6] was less than 10 µL/min/mg each time.
On to `Nc1n[nH]c2ccc(C(=O)N3CC[C@@H](c4ccc(Cl)cc4)C3)cc12`, for which the half-maximal inhibitory concentration (IC50) in [2] was determined as 24 nM; in [4] it was 150 nM. For the same compound, the inhibition in data set [7] was 20%; in data set [8], 24%; in data set [10], 15%; in data set [11] it was 23%. Further, the microsomal CLint at 1 µM was less than 10 µL/min/mg in data set [3], 19 µL/min/mg in data set [5] and 26 µL/min/mg in data set [6].
In the case of `Cc1ncc2sc(C(=O)N3CCC[C@@H]3c3ccc(Cl)cc3)nn12`, the 50% inhibitory concentration (IC50) in [2] is 110 nM; in data set [4], 1600 nM. Also, the figures for the microsomal CLint at 1 µM in data set [3], in [5] and in data set [6] were 60 µL/min/mg, 514 µL/min/mg and 449 µL/min/mg, respectively.
